According to US11897862B2 (Gilead Sciences, Inc., priority 2022, dated 2024):

What was measured:
Type in all cases: cell-based
IKZF2 = IKZF2 (Homo sapiens, UniProt Q96SW2+Q9UKS7); test: HEK293 HiBiT in vitro degradation of IKZF2; design: expressed in transfected cells; details: for Dmax / IKZF2 Dmax: maximum degradation at the highest concentration tested; for DC50: 18-24 hr incubation, normalized to DMSO control, read-out: IKZF2 EC50
Procedure, shortened: (§1)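 Flp-In T-REx HEK293 stable pools carry a single integrated copy of C-terminal HiBiT-tagged IKZF1, IKZF2 or SALL4 under a tetracycline operator, induced overnight at 37 °C with doxycycline ([…] final). Cells were then treated with serially diluted compounds for 18-24 h. Nano-Glo lytic luminescence gave EC50 and Dmax.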

SALL4 = molecular target: T1, SALL4 (Homo sapiens, UniProt Q96SW2+Q9UJQ4); test: HEK293 HiBiT in vitro degradation of SALL4; details: for DC50: 18-24 hr incubation, normalized to DMSO control, read-out: SALL4 EC50
T1 construct: expressed in transfected cells
Procedure: In vitro degradation of IKZF1, IKZF2, and SALL4 was measured using HiBiT protein tagging and detection technology (Promega).
HiBit technology was used to develop the quantitative assays to measure the cellular IKZFs level by tagging an 11 amino acid HiBit peptides […] to the protein of interest. Reporter plasmids were generated by fusing a linker sequence ([…]) followed by the HiBit tag at the C-terminus of IKZF1, IKZF2, and SALL4. The fusion fragments were subsequently cloned into pcDNA5 pcDNA™5/FRT/TO plasmids (Thermo Fisher, cat #V652020) downstream of the tetracycline operator. The resulting plasmids were co-transfected with pOG44 Flp-Recombinase Expression Vector (Thermo Fisher, cat #V600520) into Flp-In™ T-REx HEK293 line (Thermo Fisher, cat #R78077) and a stable cell pool was selected by adding 100 µg/ml of Hygromycin (Thermo Fisher, cat #10687010). The reporter cell enabled Tet-On inducible reporter expression from a single copy of the integrated gene.
On Day 1, Cells were grown to ˜80% confluency in tissue culture medium (DMEM Glutamax (Gibco10569), 10% Tet free FBS (Takara 631106), and PenStrep Glutamin (Gibco 10378)) in tissue culture flasks. Doxycycline was then added to a final concentration of […] to induce reporter expression at 37° C. overnight.
On Day 2, 125 nL of serially-diluted solution of testing compounds were dispensed into 384-well white solid assay plates via ECHO acoustic liquid handler. Cells were lifted by 0.25% Trypsin (Gibco 25200) then pelleted by centrifugation (Beckman Avanti J-E) at 500×g for 5 min. Cell pellets were resuspended in TC medium at the concentration of 3e5/mL and 25 μL of cell suspension were added into each well of compound-spotted plates. The plates were returned to a 37° C. incubator overnight (18-24 hr).
On Day 3, assay plates were removed from the tissue culture incubator and 25 μL of Nano-Glo lytic detection system (Promega, cat #N3030) was added to each well. Plates were incubated at r.t. for 3 min with shaking, and luminescence was read using an Envision reader (Perkin Elmer).
To assess the IKZF1, IKZF2, and SALL4 degrader potential of exemplified compounds of this disclosure and certain Reference Compounds EC50 and Dmax values were determined for the compounds of Examples 1 to 383 and Reference Compounds A-1, B-1, B-2, B-3, B-4, and C-1 in the HiBiT assays. Asterisks (*) indicate examples for which the data shown represents an average of n≥3.

IKZF1 = molecular target: T2, IKZF1 (Homo sapiens, UniProt Q13422+Q96SW2); test: HEK293 HiBiT in vitro degradation of IKZF1; details: for DC50: 18-24 hr incubation, normalized to DMSO control, read-out: IKZF1 EC50; for Dmax: HEK293, HEK293 HiBiT
T2 construct: expressed in transfected cells
Procedure, shortened: as §1

[1] = maximum degradation at the highest concentration tested

T1 sequence (Q9UJQ4 whole entry): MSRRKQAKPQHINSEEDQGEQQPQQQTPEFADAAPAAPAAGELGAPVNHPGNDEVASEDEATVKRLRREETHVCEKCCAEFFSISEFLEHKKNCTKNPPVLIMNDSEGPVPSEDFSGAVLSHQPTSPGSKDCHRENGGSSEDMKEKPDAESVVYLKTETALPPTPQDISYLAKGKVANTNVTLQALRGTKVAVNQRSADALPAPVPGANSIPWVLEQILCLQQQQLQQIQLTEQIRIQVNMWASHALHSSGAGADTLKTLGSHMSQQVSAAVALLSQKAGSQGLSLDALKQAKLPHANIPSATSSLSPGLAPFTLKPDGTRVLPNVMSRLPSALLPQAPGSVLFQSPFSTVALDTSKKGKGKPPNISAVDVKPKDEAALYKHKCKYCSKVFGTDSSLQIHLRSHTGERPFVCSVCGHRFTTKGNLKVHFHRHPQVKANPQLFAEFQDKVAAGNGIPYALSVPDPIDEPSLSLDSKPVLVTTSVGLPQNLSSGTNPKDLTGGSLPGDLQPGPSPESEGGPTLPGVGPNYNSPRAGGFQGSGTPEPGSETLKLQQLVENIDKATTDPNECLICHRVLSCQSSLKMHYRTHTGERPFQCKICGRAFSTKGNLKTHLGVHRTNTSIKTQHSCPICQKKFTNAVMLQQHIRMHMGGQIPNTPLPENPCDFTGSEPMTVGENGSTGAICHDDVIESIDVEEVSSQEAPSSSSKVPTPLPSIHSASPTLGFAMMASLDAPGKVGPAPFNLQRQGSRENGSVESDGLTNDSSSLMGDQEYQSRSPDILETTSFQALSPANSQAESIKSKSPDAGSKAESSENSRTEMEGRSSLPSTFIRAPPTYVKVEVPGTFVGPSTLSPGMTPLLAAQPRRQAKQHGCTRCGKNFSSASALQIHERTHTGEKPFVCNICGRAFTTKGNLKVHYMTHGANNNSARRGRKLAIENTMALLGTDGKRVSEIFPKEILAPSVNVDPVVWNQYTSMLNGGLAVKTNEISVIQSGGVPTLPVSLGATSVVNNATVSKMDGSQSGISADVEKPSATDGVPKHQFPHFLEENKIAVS
T1 sequence (Q96SW2 whole entry): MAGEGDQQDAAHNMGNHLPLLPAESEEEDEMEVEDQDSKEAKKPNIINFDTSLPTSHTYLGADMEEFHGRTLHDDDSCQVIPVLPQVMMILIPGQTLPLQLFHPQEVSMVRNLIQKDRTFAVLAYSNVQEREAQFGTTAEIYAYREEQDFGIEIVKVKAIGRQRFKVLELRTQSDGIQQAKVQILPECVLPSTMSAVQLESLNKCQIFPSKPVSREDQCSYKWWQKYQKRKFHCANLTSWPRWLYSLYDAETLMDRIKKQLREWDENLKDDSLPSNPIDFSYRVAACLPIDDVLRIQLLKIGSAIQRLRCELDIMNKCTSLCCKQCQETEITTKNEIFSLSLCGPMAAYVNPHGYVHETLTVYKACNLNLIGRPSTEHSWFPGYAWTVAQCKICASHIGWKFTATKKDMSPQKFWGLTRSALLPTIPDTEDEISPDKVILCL
T1 sequence (Q16531 whole entry partner): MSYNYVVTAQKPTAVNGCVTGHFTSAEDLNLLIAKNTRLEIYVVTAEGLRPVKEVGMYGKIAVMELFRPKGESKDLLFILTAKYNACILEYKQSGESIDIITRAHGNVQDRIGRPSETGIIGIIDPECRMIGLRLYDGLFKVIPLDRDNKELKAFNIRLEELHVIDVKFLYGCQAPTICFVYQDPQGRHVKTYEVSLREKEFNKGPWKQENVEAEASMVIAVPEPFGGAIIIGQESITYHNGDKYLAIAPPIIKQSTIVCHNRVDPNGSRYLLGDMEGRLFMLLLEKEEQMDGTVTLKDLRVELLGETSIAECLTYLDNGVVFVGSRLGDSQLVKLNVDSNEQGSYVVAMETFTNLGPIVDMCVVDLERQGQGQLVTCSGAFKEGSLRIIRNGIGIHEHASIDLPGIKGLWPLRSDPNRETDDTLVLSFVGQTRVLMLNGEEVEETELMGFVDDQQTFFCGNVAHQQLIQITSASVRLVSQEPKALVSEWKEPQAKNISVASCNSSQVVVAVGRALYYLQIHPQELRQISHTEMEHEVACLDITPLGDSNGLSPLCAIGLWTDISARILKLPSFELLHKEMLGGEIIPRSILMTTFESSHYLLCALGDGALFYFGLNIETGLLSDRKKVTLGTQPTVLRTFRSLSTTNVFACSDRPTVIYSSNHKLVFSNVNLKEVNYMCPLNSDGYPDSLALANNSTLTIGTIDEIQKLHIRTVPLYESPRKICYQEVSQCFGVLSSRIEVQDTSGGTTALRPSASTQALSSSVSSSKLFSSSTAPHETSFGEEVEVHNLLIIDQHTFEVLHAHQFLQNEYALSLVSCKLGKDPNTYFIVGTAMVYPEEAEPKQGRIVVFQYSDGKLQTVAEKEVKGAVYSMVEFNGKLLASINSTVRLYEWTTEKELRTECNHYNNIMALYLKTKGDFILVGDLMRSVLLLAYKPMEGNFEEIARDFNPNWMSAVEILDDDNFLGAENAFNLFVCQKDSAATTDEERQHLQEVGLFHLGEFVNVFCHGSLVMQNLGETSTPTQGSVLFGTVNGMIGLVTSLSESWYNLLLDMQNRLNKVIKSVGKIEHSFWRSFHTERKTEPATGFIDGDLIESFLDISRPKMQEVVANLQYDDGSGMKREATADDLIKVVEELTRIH
T2 sequence (Q13422 whole entry): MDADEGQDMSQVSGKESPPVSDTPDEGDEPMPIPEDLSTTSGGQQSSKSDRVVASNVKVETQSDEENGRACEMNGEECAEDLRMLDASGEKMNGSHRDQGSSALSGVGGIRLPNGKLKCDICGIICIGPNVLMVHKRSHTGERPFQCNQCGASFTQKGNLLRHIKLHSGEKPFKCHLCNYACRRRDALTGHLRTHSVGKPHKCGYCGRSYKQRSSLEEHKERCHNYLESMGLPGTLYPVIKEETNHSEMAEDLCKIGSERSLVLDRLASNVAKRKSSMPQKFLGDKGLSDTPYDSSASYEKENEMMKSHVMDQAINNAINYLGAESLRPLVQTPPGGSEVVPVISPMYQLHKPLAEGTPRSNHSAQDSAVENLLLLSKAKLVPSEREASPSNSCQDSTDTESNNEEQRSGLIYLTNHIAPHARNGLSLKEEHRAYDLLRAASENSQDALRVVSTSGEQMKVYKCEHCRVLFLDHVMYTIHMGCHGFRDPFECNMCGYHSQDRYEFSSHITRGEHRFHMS
T2 sequence (Q96SW2 whole entry): as the sequence (Q96SW2 whole entry) above
T2 sequence (Q16531 whole entry partner): as the sequence (Q16531 whole entry partner) above
Chain of IKZF2 (Q9UKS7 1-500 isoform Q9UKS7-2): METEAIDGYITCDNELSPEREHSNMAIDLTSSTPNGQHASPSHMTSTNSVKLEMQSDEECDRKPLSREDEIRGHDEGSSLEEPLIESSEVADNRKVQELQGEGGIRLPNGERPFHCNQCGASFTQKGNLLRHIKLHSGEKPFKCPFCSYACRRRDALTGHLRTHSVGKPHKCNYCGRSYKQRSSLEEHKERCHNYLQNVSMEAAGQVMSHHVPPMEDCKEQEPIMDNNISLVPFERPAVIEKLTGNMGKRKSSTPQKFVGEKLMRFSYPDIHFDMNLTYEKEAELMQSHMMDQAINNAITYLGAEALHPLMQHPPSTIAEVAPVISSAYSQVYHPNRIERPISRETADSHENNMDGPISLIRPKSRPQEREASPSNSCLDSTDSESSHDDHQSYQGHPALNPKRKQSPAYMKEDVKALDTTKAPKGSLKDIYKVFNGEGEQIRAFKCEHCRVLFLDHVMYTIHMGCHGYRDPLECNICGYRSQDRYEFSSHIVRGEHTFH
Chain of IKZF2 (Q96SW2 whole entry): as the sequence (Q96SW2 whole entry) above
Chain of IKZF2 (Q16531 whole entry partner): as the sequence (Q16531 whole entry partner) above

SMILES: O=C1CCC(N2Cc3c(ccc(C[C@H]4OCCC[C@@H]4NC4CCN(CC(F)(F)F)CC4)c3F)C2=O)C(=O)N1 (some centres unmarked) [Example 308]
- Dmax (IKZF2; HEK293, HEK293 HiBiT): 96%
- DC50 (IKZF2; HEK293 HiBiT): 12 nM
- DC50 (SALL4): > 10 µM
- DC50 (IKZF1; HEK293 HiBiT): > 1000 nM

SMILES: O=C1CC[C@@H](N2Cc3c(ccc(C[C@H]4CCCC[C@@H]4NC4CCC(F)(F)CC4)c3F)C2=O)C(=O)N1 (single isomer, unassigned) [Example 335]
- Dmax (IKZF2; HEK293, HEK293 HiBiT): 97%
- DC50 (IKZF2; HEK293 HiBiT): 1 nM
- DC50 (SALL4): > 10 µM
- Dmax (IKZF1; [1]): 62%
- DC50 (IKZF1; HEK293 HiBiT): 16 nM

SMILES: O=C1CC[C@@H](N2Cc3c(ccc(C[C@H]4OCCC[C@@H]4NC4CCC(F)(F)CC4)c3F)C2=O)C(=O)N1 (single isomer, unassigned) [Example 333]
- Dmax (IKZF2; HEK293, HEK293 HiBiT): 94%
- DC50 (IKZF2; HEK293 HiBiT): 9 nM
- DC50 (SALL4): > 10 µM
- DC50 (IKZF1; HEK293 HiBiT): 210 nM

SMILES: O=C1CC[C@H](N2Cc3c(ccc(C[C@H]4OCCC[C@@H]4NC4CCC(F)(F)CC4)c3F)C2=O)C(=O)N1 (single isomer, unassigned) [Example 332]
- Dmax (IKZF2; HEK293, HEK293 HiBiT): 95%
- DC50 (IKZF2; HEK293 HiBiT): 6 nM
- DC50 (SALL4): > 10 µM
- DC50 (IKZF1; HEK293 HiBiT): > 1000 nM

SMILES: O=C1CCC(N2Cc3cc(C[C@H]4CCCC[C@@H]4NC4CCc5c(C(F)(F)F)n[nH]c5C4)ccc3C2=O)C(=O)N1 (single isomer, unassigned) [Example 362]
- Dmax (IKZF2; HEK293, HEK293 HiBiT): 97%
- DC50 (IKZF2; HEK293 HiBiT): 11 nM
- DC50 (SALL4): > 10 µM
- Dmax (IKZF1; [1]): 39%
- DC50 (IKZF1; HEK293 HiBiT): 114 nM

SMILES: [2H]C1(N[C@H]2CCCC[C@@H]2Cc2ccc3c(c2F)CN(C2CCC(=O)NC2=O)C3=O)CCC(F)(F)CC1 (some centres unmarked) [Example 209]
- Dmax (IKZF2; HEK293, HEK293 HiBiT): 97%
- DC50 (IKZF2; HEK293 HiBiT): 1 nM
- DC50 (SALL4): > 10 µM
- Dmax (IKZF1; [1]): 62%
- DC50 (IKZF1; HEK293 HiBiT): 35 nM

SMILES: O=C1CCC(N2Cc3c(ccc(C[C@H]4OCCC[C@@H]4NC4CCN(CC(F)F)CC4)c3F)C2=O)C(=O)N1 (some centres unmarked) [Example 309]
- DC50 (IKZF2; HEK293 HiBiT): 16 nM
- Dmax (IKZF2; HEK293 HiBiT): 96%
- DC50 (SALL4): > 10 µM
- DC50 (IKZF1; HEK293 HiBiT): > 1000 nM

SMILES: O=C1CCC(N2Cc3cc(C[C@H]4C[C@H](F)CC[C@@H]4NC4CCC(F)(F)CC4)ccc3C2=O)C(=O)N1 (some centres unmarked) [Example 169]
- Dmax (IKZF2; HEK293, HEK293 HiBiT): 97%
- DC50 (IKZF2; HEK293 HiBiT): 1 nM
- DC50 (SALL4): > 10 µM
- Dmax (IKZF1; [1]): 42%
- DC50 (IKZF1; HEK293 HiBiT): 79 nM

SMILES: O=C1CCC(N2Cc3cc(C[C@H]4CCCC[C@@H]4NC4CCc5[nH]nc(C(F)(F)F)c5C4)ccc3C2=O)C(=O)N1 (some centres unmarked) [Example 352]
- Dmax (IKZF2; HEK293, HEK293 HiBiT): 99%
- DC50 (IKZF2; HEK293 HiBiT): 3 nM
- DC50 (SALL4): 3.1 µM
- Dmax (SALL4; [1]): 47%
- Dmax (IKZF1; [1]): 47%
- DC50 (IKZF1; HEK293 HiBiT): 323 nM

SMILES: CO[C@H]1CC[C@H](Cc2ccc3c(c2)CN(C2CCC(=O)NC2=O)C3=O)[C@@H](NC2CCC(F)(F)CC2)C1 (some centres unmarked) [Example 344]
- Dmax (IKZF2; HEK293, HEK293 HiBiT): 93%
- DC50 (IKZF2; HEK293 HiBiT): 6 nM
- DC50 (SALL4): > 10 µM
- Dmax (IKZF1; [1]): 51%
- DC50 (IKZF1; HEK293 HiBiT): 41 nM

SMILES: O=C1CCC(N2Cc3cc(C[C@H]4CCCC[C@@H]4NC4CCc5c(C(F)(F)F)n[nH]c5C4)ccc3C2=O)C(=O)N1 (single isomer, unassigned) [Example 363]
- DC50 (IKZF2; HEK293 HiBiT): 1 nM
- IKZF2 Dmax (IKZF2; HEK293 HiBiT): 97%
- DC50 (SALL4): > 10 µM
- DC50 (IKZF1; HEK293 HiBiT): 50 nM
- IKZF1 Dmax (IKZF1; HEK293 HiBiT, maximum degradation at the highest concentration tested): 56%

SMILES: O=C1CCC(N2Cc3c(ccc(C[C@H]4OCCC[C@@H]4NC4CCC(OC(F)F)CC4)c3F)C2=O)C(=O)N1 (single isomer, unassigned) [Example 327]
- DC50 (IKZF2; HEK293 HiBiT): 3 nM
- IKZF2 Dmax (IKZF2; HEK293 HiBiT): 96%
- DC50 (SALL4): > 10 µM
- DC50 (IKZF1; HEK293 HiBiT): 535 nM

SMILES: COCC1CCC(N[C@H]2CCCO[C@@H]2Cc2ccc3c(c2F)CN(C2CCC(=O)NC2=O)C3=O)CC1 (single isomer, unassigned) [Example 265]
- DC50 (IKZF2; HEK293 HiBiT): 3 nM
- IKZF2 Dmax (IKZF2; HEK293 HiBiT): 96%
- DC50 (SALL4): > 10 µM
- DC50 (IKZF1; HEK293 HiBiT): > 1000 nM

SMILES: CC1CC[C@H](NC2CCC(F)(F)CC2)[C@@H](Cc2ccc3c(c2)CN(C2CCC(=O)NC2=O)C3=O)C1 (single isomer, unassigned) [Example 324]
- Dmax (IKZF2; HEK293, HEK293 HiBiT): 95%
- DC50 (IKZF2; HEK293 HiBiT): 3 nM
- DC50 (SALL4): > 10 µM
- Dmax (IKZF1; [1]): 71%
- DC50 (IKZF1; HEK293 HiBiT): 16 nM

SMILES: COC1(C)CCC(N[C@H]2CCCO[C@@H]2Cc2ccc3c(c2F)CN(C2CCC(=O)NC2=O)C3=O)CC1 (single isomer, unassigned) [Example 316]
- Dmax (IKZF2; HEK293, HEK293 HiBiT): 95%
- DC50 (IKZF2; HEK293 HiBiT): 7 nM
- DC50 (SALL4): > 10 µM
- DC50 (IKZF1; HEK293 HiBiT): > 1000 nM

SMILES: O=C1CCC(N2Cc3c(ccc(C[C@H]4OCCC[C@@H]4NC4CCC5(CC4)CC5(F)F)c3F)C2=O)C(=O)N1 (single isomer, unassigned) [Example 364]
- Dmax (IKZF2; HEK293, HEK293 HiBiT): 96%
- DC50 (IKZF2; HEK293 HiBiT): 3 nM
- DC50 (SALL4): > 10 µM
- Dmax (IKZF1; [1]): 37%
- DC50 (IKZF1; HEK293 HiBiT): 45 nM

SMILES: O=C1CC[C@H](N2Cc3c(ccc(C[C@H]4CCCC[C@@H]4NC4CCC(F)(F)CC4)c3F)C2=O)C(=O)N1 (single isomer, unassigned) [Example 334]
- Dmax (IKZF2; HEK293, HEK293 HiBiT): 97%
- DC50 (IKZF2; HEK293 HiBiT): 1 nM
- DC50 (SALL4): > 10 µM
- Dmax (IKZF1; [1]): 59%
- DC50 (IKZF1; HEK293 HiBiT): 13 nM

SMILES: O=C1CCC(N2Cc3cc(C[C@H]4OCCC[C@@H]4NC4CCC(F)CC4)ccc3C2=O)C(=O)N1 (single isomer, unassigned) [Example 366]
- Dmax (IKZF2; HEK293, HEK293 HiBiT): 85%
- DC50 (IKZF2; HEK293 HiBiT): 17 nM
- DC50 (SALL4): > 10 µM
- DC50 (IKZF1; HEK293 HiBiT): > 1000 nM

SMILES: O=C1CC[C@@H](N2Cc3c(ccc(C[C@H]4OCCC[C@@H]4N[C@H]4CC[C@H](C(F)F)CC4)c3F)C2=O)C(=O)N1 (single isomer, unassigned) [Example 331]
- Dmax (IKZF2; HEK293, HEK293 HiBiT): 96%
- DC50 (IKZF2; HEK293 HiBiT): 4 nM
- DC50 (SALL4): > 10 µM
- DC50 (IKZF1; HEK293 HiBiT): 448 nM

SMILES: O=C1CCC(N2Cc3cc(C[C@H]4OCCC[C@@H]4NC4CCC(F)CC4)ccc3C2=O)C(=O)N1 (single isomer, unassigned) [Example 367]
- DC50 (IKZF2; HEK293 HiBiT): 15 nM
- IKZF2 Dmax (IKZF2; HEK293 HiBiT): 87%
- DC50 (SALL4): > 10 µM
- DC50 (IKZF1; HEK293 HiBiT): > 1000 nM

SMILES: Cn1ncc2c1CCC(N[C@H]1CCCC[C@@H]1Cc1ccc3c(c1)CN(C1CCC(=O)NC1=O)C3=O)C2 (some centres unmarked) [Example 377]
- Dmax (IKZF2; HEK293, HEK293 HiBiT): 97%
- DC50 (IKZF2; HEK293 HiBiT): 5 nM
- DC50 (SALL4): > 10 µM
- Dmax (IKZF1; [1]): 48%
- DC50 (IKZF1; HEK293 HiBiT): 73 nM

SMILES: O=C1CC[C@H](N2Cc3c(ccc(C[C@H]4OCCC[C@@H]4N[C@H]4CC[C@H](C(F)F)CC4)c3F)C2=O)C(=O)N1 (single isomer, unassigned) [Example 330]
- Dmax (IKZF2; HEK293, HEK293 HiBiT): 94%
- DC50 (IKZF2; HEK293 HiBiT): 3 nM
- DC50 (SALL4): > 10 µM
- Dmax (IKZF1; [1]): 28%
- DC50 (IKZF1; HEK293 HiBiT): 37 nM
